# According to patent publication US7303915B2, “In vitro-differentiated retinal ganglion cells and method for producing same” (Wisconsin Alumni Research Foundation, priority 2005, dated 2007):
# Residues, ends and D or L forms follow the SMILES beside them. *: point of attachment. Cbz = O=C(OCc1ccccc1)*; CH2F = FC*
# Assays:
# [1] = tested on: Thy-1; assay: Immunoblot analysis of Thy-1 in RGC-5 cells; conditions: 316 nM for three days
# Description: (§4) After transfer, the membrane was blocked with 5% non-fat milk in TBS (pH 8.0) for 30-60 minutes, and then probed with primary antibodies to RGC marker proteins in blocking buffer. Antibodies used included purified rabbit polyclonal anti-microtubule-associated protein 2 (1:2000; Chemicon; Temecula, Calif.), polyclonal rabbit anti-Thy-1 (1:100; Santa Cruz Biotechnology), and polyclonal rabbit anti-actin (1:1000; Sigma). Blots were rinsed 3 times with TBS containing 0.05% Tween-20 (Fisher Scientific), then washed 5 times for 10 minutes each at room temperature on an orbital shaker. Secondary antibodies used were purified HRP-conjugated goat anti-rabbit IgG and purified HRP-conjugated goat anti-mouse IgG (1:5000; Jackson Immunoresearch Laboratories; West Grove, Pa.), and were incubated for 1 hour at room temperature, followed by 3 rinses and five 10 minute washes with TBS containing Tween-20 at room temperature on an orbital shaker. […] The blots were then exposed to Kodak BioMax XAR film (Eastman Kodak Company; Rochester, N.Y.) and developed. The films were scanned at 1600 dpi and band density was determined by comparing total intensity in an area containing the band of interest to the intensity of an equal size area of background using NIH ImageJ software. Band density readings are presented with respect to the density of the band from the control, untreated cell condition.
# [2] = tested on: RGC-5 cells; assay: Cell number by MTT assay; type: cell-based, rat
# Description: Cell number: Cells were plated in 96 well plates and 3-(4,5-dimethylthiazol-2-yl)-2,5-diphenyltetrazolium bromide (MTT) added immediately to a final concentration of 500 μg/ml. Plates were incubated for 5 hours at 37° C. The media was then replaced with 200 μl of DMSO, which was pipetted up and down to dissolve the formazan crystals, and the plate incubated at 37° C. for 5 minutes. Absorbance was measured at 550 nm on a THERMOmax™ microplate reader (Molecular Devices; Sunnyvale, Calif.). All readings were normalized to a standard curve derived from known numbers of cells.
# [3] = tested on: RGC-5 cells; assay: Whole-cell voltage-clamp recording of RGC-5 cells; type: cell-based, rat; conditions: for conductance of outward currents at +90 mV: after leak subtraction
# Description: No series resistance compensation was used. Currents were low-pass filtered at 1-5 kHz with a four-pole Bessel filter, and digitized at a rate no less than twice the filter frequency. […] Analysis and curve fitting was also performed using AxoGraph.
# Voltage-gated currents were studied by applying 10 ms voltage steps from −100 to +90 mV in 10 mV increments, from a holding potential of −60 mV. This protocol was run 2-6 times on each cell and the currents evoked at each potential were averaged. Passive leak and capacitive currents were removed by scaling the average current evoked at −70 mV, and subtracting the result from the average current obtained at each voltage. Current amplitudes were measured at steady-state (i.e., near the end of the voltage step), and the slope conductance was computed as the difference between successive amplitudes, divided by the 10 mV step increment.
# [4] = tested on: PKR T451; assay: Kinetworks KPSS 2.1 phosphorylation screen, PKR T451; type: cell-based, rat; conditions: 1 μM for 5 minutes
# Description: (§1) Analysis of kinasephosphorylation targets: Total cell lysates were prepared as described in Zhang H, et al., J Biol Chem 276:6905-6908 (2001). Cells were washed with ice-cold PBS, scraped, and centrifuged at 3,200 g for five minutes. The pellets were resuspended in lysis buffer (Kinexus Bioinformatics; Vancouver, BC, Canada) supplemented with 5 mM pepstatin A (Roche; Indianapolis, Ind.), and Complete mini protease inhibitor cocktail (Roche). The suspensions were sonicated on ice for two 15-second bursts, followed by centrifugation at 100,000 g for 30 minutes at 4° C. […] Bradford M M, Anal Biochem 72:248-254 (1976). These were then transferred to nitrocellulose membranes. Using a twenty-lane multiblotter (BioRad; Hercules, Calif.), the membranes were incubated with different mixtures of up to three antibodies per lane that react with a distinct subset of at least thirty-seven known phosphorylated sites of cell signaling proteins of distinct molecular masses. After further incubation with a mixture of relevant HRP conjugated secondary antibodies (Santa Cruz Biotechnology), the blots were developed using ECL Plus reagent (Amersham Pharmacia; Piscataway, N.J.) and signals quantified using Quantity One software (BioRad). Detailed information and protocols of the Kinetworks™ analysis can be found at the Kinexus Bioinformatics Corporations website.
# [5] = tested on: CDK1 T14/Y15; assay: Kinetworks KPSS 2.1 phosphorylation screen, CDK1 T14/Y15; type: cell-based, rat; conditions: 1 μM for 5 minutes
# Description: as §1
# [6] = tested on: microtubule-associated protein 2 (MAP-2); assay: Immunoblot analysis of MAP-2 in RGC-5 cells; conditions: 316 nM for three days
# Description: as §4
# [7] = tested on: ERK1 T202/Y204; assay: Kinetworks KPSS 2.1 phosphorylation screen, ERK1 T202/Y204; type: cell-based, rat; conditions: 1 μM for 5 minutes
# Description: as §1
# [8] = tested on: MEK1 S298; assay: Kinetworks KPSS 2.1 phosphorylation screen, MEK1 S298; type: cell-based, rat; conditions: 1 μM for 5 minutes
# Description: (§2) Cells were washed with ice-cold PBS, scraped, and centrifuged at 3,200 g for five minutes. The pellets were resuspended in lysis buffer (Kinexus Bioinformatics; Vancouver, BC, Canada) supplemented with 5 mM pepstatin A (Roche; Indianapolis, Ind.), and Complete mini protease inhibitor cocktail (Roche). The suspensions were sonicated on ice for two 15-second bursts, followed by centrifugation at 100,000 g for 30 minutes at 4° C. […] These were then transferred to nitrocellulose membranes. Using a twenty-lane multiblotter (BioRad; Hercules, Calif.), the membranes were incubated with different mixtures of up to three antibodies per lane that react with a distinct subset of at least thirty-seven known phosphorylated sites of cell signaling proteins of distinct molecular masses. After further incubation with a mixture of relevant HRP conjugated secondary antibodies (Santa Cruz Biotechnology), the blots were developed using ECL Plus reagent (Amersham Pharmacia; Piscataway, N.J.) and signals quantified using Quantity One software (BioRad). Detailed information and protocols of the Kinetworks™ analysis can be found at the Kinexus Bioinformatics Corporations website.
# [9] = tested on: c-Kit Y703; assay: Kinetworks KPSS 2.1 phosphorylation screen, c-Kit Y703; type: cell-based, rat; conditions: 1 μM for 5 minutes
# Description: as §1
# [10] = tested on: RGC-5 cells; assay: Morphological differentiation and neurite count of RGC-5 cells; conditions: for morphological evidence of differentiation: apoptosis inducer; for rounding of the cell soma: specific kinase inhibitors on RGC-5 cells
# Description: Cell culture: RGC-5 cells were cultured in Dulbecco's modification of Eagle's medium (DMEM; Mediatech, Inc.; Herndon, Calif.) containing 1 mg/L glucose with L-glutamine, supplemented with 10% FBS, 100 U/ml penicillin and 100 μg/ml streptomycin. Cells were incubated at 37° C. in humidified 5% CO2.
# Pharmacological agents were used to induce or to inhibit various signaling pathways within RGC-5 cells. Cells were replated on 12 mm round cover glass in 24 well plates 24 hours prior to pharmacological treatment. Drugs were added for varying lengths of time and then processed for immunocytochemistry.
# Cell morphology: Photomicrographs were taken at 400× total magnification with Nomarski optics, digitized as above, and stored as JPEG images. The pictures were then batch analyzed off-line to assess the development of neurites. A total of fifty cells from each condition were analyzed. The fifty cells assessed for neurite outgrowth in each condition were selected to include all cells in each photomicrograph for which the neurite tree was visible, and continuing with a new photomicrograph until fifty cells were analyzed. Projections from the cell were classified as neurites if they were equal or greater in length than the cell soma. Only branches arising from the soma were counted. The neurite counts were expressed as mean±S.E.M.
# [11] = tested on: NMDA-R1; assay: Immunocytochemistry for NMDA-R1 in RGC-5 cells; type: cell-based, rat; conditions: differentiated vs undifferentiated cells, twenty-four hours
# Description: (§3) Immunocytochemistry: Differentiated RGC-5 cells plated on coverslips were fixed with 4% paraformaldehyde (Fisher) in PBS, pH 7.2 for 20 minutes at room temperature, rapidly rinsed with Tris-buffered saline (TBS; 100 mM Tris, pH 7.6, 0.9% NaCl) 3 times for a few seconds each and 2 times for 5 minutes each, and blocked with 5% normal goat serum (BioWhittaker) in TBS for 30 minutes at room temperature. The NMDA-R1 receptor was detected by incubating with purified mouse monoclonal anti-NMDA-R1 antibody (BD Biosciences; San Jose, Calif.; clone 54.1) at 2.5 μg/ml overnight at room temperature, followed by Alexa Fluor™ 594 goat anti-mouse IgG at 10 μg/ml in blocking buffer at room temperature for 90 minutes. Alexa Fluor™ 594 fluorescence was detected with a Texas Red filter set (excitation 560±20 nm, dichroic 595 nm long-pass, emission 630±30 nm). Thy-1 was detected after fixing and blocking by incubating with rabbit anti-Thy-1 polyclonal IgG (Santa Cruz Biotechnology; Santa Cruz, Calif.) at 20 μg/ml overnight at 4° C., followed by Alexa Fluor 488 goat anti-rabbit IgG at 4 μg/ml at room temperature for 60 minutes. Alexa Fluor 488 fluorescence was detected with a FITC filter set (excitation 470±20 nm, dichroic 505 nm long-pass, emission 540±20 nm) filter set. […]
# [12] = tested on: RGC-5 cells; assay: Nuclear condensation changes of apoptosis (Hoechst 33258); type: cell-based, rat; conditions: twenty-four hour incubation, Hoechst 33258 10 μg/ml for thirty minutes
# [13] = tested on: focal adhesion kinase (FAK) S722; assay: Kinetworks KPSS 2.1 phosphorylation screen, FAK S722; type: cell-based, rat; conditions: 1 μM for 5 minutes
# Description: as §2
# [14] = tested on: Thy-1; assay: Immunocytochemistry for Thy-1 in RGC-5 cells; type: cell-based, rat; conditions: differentiated vs undifferentiated cells, twenty-four hours
# Description: as §3
# [15] = target: Rho-Kinase; conditions: cited from earlier work
# [16] = target: PKA; conditions: read-out: Ki protein kinase A; cited from earlier work
# [17] = 1 hr [24 hr], cells with large conductance
smiles,measurement,setting,value
CN[C@@H]1C[C@H]2O[C@@](C)([C@@H]1OC)n1c3ccccc3c3c4c(c5c6ccccc6n2c5c31)C(=O)NC4 [staurosporine],Thy-1 level (Western blot),[1],increased levels
same,cell number (MTT),[2]; 1 hour after culture,7133±266 cells
same,cell number (MTT),[2]; twenty-four hours,"10,094±1023 cells"
same,conductance of outward currents at +90 mV,"[3]; 1 hr [24 hr], untreated 3.1±0.5",14±5 nS
same,apparent half-activation voltage (Boltzmann fit),[3]; [17],+48 mV
same,maximal conductance (Boltzmann fit),[3]; [17],26 nS
same,apparent capacitance,"[3]; 1 hr [24 hr], untreated 28±2",31±5 pF
same,resting potential,"[3]; 1 hr [24 hr], untreated −34±0.5",−27±9 mV
same,resting potential,[3]; 1 hr [48 hr],−9±6 mV
same,conductance of outward currents at +90 mV,[3]; 1 hr [48 hr],7±3 nS
same,input resistance,"[3]; 1 hr [48 hr], n=4",322±89 MΩ
same,apparent capacitance,"[3]; 1 hr [48 hr], p<0.05",44±3 pF
same,apparent capacitance,[3]; 22 hr [2 hr],38±3
same,resting potential,[3]; 22 hr [2 hr],−11±3
same,conductance of outward currents at +90 mV,[3]; 22 hr [2 hr],5±3 nS
same,decrease in phosphorylation of PKR T451 vs control,[4],100%
same,increase in phosphorylation of CDK1 T14/Y15 vs control,[5],64%
same,MAP-2 level (Western blot),[6],increased levels
same,phosphorylation of ERK1 T202/Y204 vs control,[7],not present in control
same,decrease in phosphorylation of MEK1 S298 vs control,[8],100%
same,increase in phosphorylation of c-Kit Y703 vs control,[9],43%
same,differentiation-inducing activity in RGC-5 cells,[10],strong differentiation inducer
same,neurite branching,[10]; 316 nM,minimally branched neurites
same,differentiation after short exposure,"[10]; 1 μM for sixty seconds, then fresh media until twenty-four hours from treatment",definite morphological signs of differentiation
same,"concentrations frequently toxic (necrotic cell body, blebbing and disruption of the neurite tree)",[10]; RGC-5 cells,higher than 1.78 μM
same,neurites per cell,"[10]; RGC-5 cells, 1 μM, average±SEM from 50 cells",2.94±0.11 neurites per cell
same,average and total process length,[10]; high (3.16 μM) concentration,average and total process length decreased somewhat
same,neurite branching,[10]; high (3.16 μM) concentration,neurite branching was greater
same,average and total neurite outgrowth,[10]; moderate (1 μM) concentration,promoted longer average and total neurite outgrowth
same,NMDA-R1 labeling,[11],visibly more intense staining
same,nuclear condensation (Hoechst 33258),[12],"the same as controls, with finely granular nuclei that were not compacted"
same,increase in phosphorylation of S722 of FAK vs sham-treated cells,[13],90%
same,Thy-1 labeling,[14],visibly more intense staining
C[C@H](CCC(=O)O)C[C@H](C)C[C@H](C)C(=O)/C=C(\O)[C@H](C)C[C@H](C)C/C=C/[C@@H](C)[C@@H](O)[C@@H](C)[C@@H](O)C[C@@H]1CC[C@@](C)([C@H]2CC[C@@](C)([C@@H](C)O)O2)O1 [ionomycin],morphological evidence of differentiation,[10]; 20 μM,None resulted in morphological evidence of differentiation
same,nuclear condensation (Hoechst 33258),[12],induced nuclear condensation
Cc1cncc2cccc(S(=O)(=O)N3CCCNC[C@@H]3C)c12 [H-1152],Ki,[15],1.6 nM
same,differentiation-inducing activity in RGC-5 cells,[10],weak differentiation inducers
same,neurites expressed,"[10]; RGC-5 cells, 1 μM",1.06±0.15 neurites
same,rounding of the cell soma,[10],did not produce rounding of the cell soma
O=S(=O)(NCCNC/C=C/c1ccc(Br)cc1)c1cccc2cnccc12 [H-89],differentiation-inducing activity in RGC-5 cells,[10],weak differentiation inducers
same,neurites expressed,"[10]; RGC-5 cells, 56.2 μM",1.80±0.16 neurites
same,rounding of the cell soma,[10],did not produce rounding of the cell soma
same,Ki,[16],50 nM
COC(=O)C[C@H](NC(=O)[C@H](C)NC(=O)[C@@H](NC(=O)OCc1ccccc1)C(C)C)C(=O)CF [ZVAD-fmk] (Cbz-Val-Ala-Asp(OMe)-CH2F),effect of pretreatment on differentiation with SS,[10],did not inhibit differentiation with SS
same,differentiation of undifferentiated cells by the agent alone,[10]; without staurosporine,did not differentiate
"C/C=C(/C)C(=O)O[C@H]1C(C)=C2[C@H]([C@@H]1OC(=O)CCCCCCC)[C@@](C)(OC(C)=O)C[C@H](OC(=O)CCC)[C@@]1(O)[C@H]2OC(=O)[C@@]1(C)O [thapsigargin, Thapsigargin]",cell shape,[10]; 10 μM,did cause cells to become more spindle-shaped
same,morphological evidence of differentiation,[10]; 10 μM,None resulted in morphological evidence of differentiation
C=C(C)[C@H]1Cc2c(ccc3c2O[C@@H]2COc4cc(OC)c(OC)cc4[C@@H]2C3=O)O1 [rotenone],morphological evidence of differentiation,[10]; 10 μM,None resulted in morphological evidence of differentiation
